≈ marks a conversion by molar mass, not a printed value.
Experiments:
Type in all cases: physicochemical
[1] = Solubility of bilastine and mometasone furoate monohydrate in formulations with HPBCD 12.5 to 100 mg/mL at pH 4.3, 4.6, 4.9 (Example 3); conditions: for solubility: thermodynamic from solid
Method: (§1) HPLC measurements were conducted using a HPLC-HCLASS Chromatographic System with PDA or UV-VIS detector equipped with a Xbridge Shield RP18 3.5 μm […] Column. Mobile phases were ammonium bicarbonate (10 mM pH 9, FLUKA), acetonitrile (FISCHER) and methanol ([…]). Samples were submitted to Acrodisc 32 mm Sryinge Filters with 1.2 μm Supor Membrane, Batch: 18-1077 (PALL).
Six different formulations (with mometasone furoate monohydrate and the rest of excipients as defined in example 2) were prepared (see table below). The six formulations had amounts of HPBCD from 12.5 to 100 mg/mL. Then, in each of them an excessive amount of bilastine was added and the maximum solubility was tested. Furthermore, the percentage of the mometasone furoate dissolved was also tested. All the measurements were conducted at time 0.

[2] = Solubility of bilastine with α-cyclodextrin (FIG. 2); conditions: aqueous composition with α-cyclodextrin, aqueous with cosolvent or surfactant or cyclodextrin; 5 wt. % α-cyclodextrine instead of HPBCD, pH 4.5, FIG. 2
[3] = Solubility of bilastine and mometasone furoate monohydrate in Kolliphor RH40 formulations (Example 4)
Method: To this end, aqueous formulations of Kolliphor RH40 at concentrations 0, 5, 15, 25 and 50 mg/mL and at pH values of 3.7, 4.0, 4.3 and 4.6 were prepared.
Additionally, 0.5 mg/mL of mometasone furoate monohydrate was added to each formulation. The influence of Kolliphor RH40 in bilastine solubility is represented in FIG. 3 in graphs A and B therein. It is shown that, at pH values above 4.3, Kolliphor RH40 at a concentration of 50 mg/mL is insufficient in solubilizing 8 mg/mL of Bilastine (FIG. 3 in graph A therein. In addition, at the concentration of 50 mg/mL and pH of 4.3, Kolliphor RH40 solubilizes more than 10% of the added mometasone furoate monohydrate (FIG. 3 in graph B therein.

[4] = Solubility of bilastine in water; conditions: solubility depends on the pH
[5] = Stability of formulation with Kolliphor RH40 in stability chambers (Example 5); conditions: Kolliphor RH40 50 mg/mL formulation
Method: as §1
In the formulation of the present example, sorbitan monooleate acts as an antifoam agent. A batch manufactured according to the table above was prepared, packaged and placed in stability chambers wherein the conditions were 25° C./40% RH and 40° C./25% RH for the duration of 3 months.

[6] = Stability of formulas with HPBCD in stability chambers (Example 6); conditions: HPBCD 25 mg/mL
Method: as §1
The three formulas (bilastine at a concentration of 2, 4 and 8 mg/mL) were placed in stability chambers wherein the conditions were 25° C./40% RH and 40° C./25% RH for the duration of 6 or 12 months.

[7] = Mometasone impurities under forced stability conditions, increasing HPBCD (Example 7); conditions: pH 4.6, 50° C., 3 months
Method: The percentage of Mometasone was calculated-using the following formula: […]
The percentage of Mometasone degradation products was calculated using the following formula: […]
To evaluate the influence that the cyclodextrin HPBCD had on the impurities of mometasone, formulations similar to the one described in example 1 (see table therein) were studied at pH 4.6 for increasing cyclodextrin concentrations of from 25 to 95 mg/mL. The formulations were submitted to forced stability conditions at 50° C. for a 3-month period. The results were obtained from HPLC measurements.

## CCOCCn1c(C2CCN(CCc3ccc(C(C)(C)C(=O)O)cc3)CC2)nc2ccccc21 [Bilastine, 2-[4-(2-{4-[1-(2-ethoxyethyl)-1H-benzimidazol-2-yl]-1-piperidinyl}ethyl)phenyl]-2-methylpropanoic acid]
[1]; aqueous with cosolvent or surfactant or cyclodextrin
  solubility: ≥ 8000 µg/mL
[1]; pH 4.6, aqueous with cosolvent or surfactant or cyclodextrin
  solubility: ~10000 µg/mL (≈ 21.6 mM)
[2]
  solubility: < 1000 µg/mL
[3]; aqueous with cosolvent or surfactant or cyclodextrin, thermodynamic from solid
  solubility: < 8000 µg/mL
[4]
  solubility in water: slightly soluble

## C[C@@H]1C[C@H]2[C@@H]3CCC4=CC(=O)C=C[C@]4(C)[C@@]3(Cl)[C@@H](O)C[C@]2(C)[C@@]1(OC(=O)c1ccco1)C(=O)CCl.O [Mometasone Furoate monohydrate, Mometasone furoate monohydrate]
[1]; HPBCD 75 mg/ml (7.5 wt. %), FIG. 1 graph B
  solubility of mometasone furoate: around 4 mg/ml
[3]; Kolliphor RH40 50 mg/mL, pH 4.3, 0.5 mg/mL added, FIG. 3 graph B
  added mometasone furoate monohydrate solubilized: more than 10%
[5]; 25° C./40% RH, 3 months
  Total degradation products % w/w: 0.31% w/w
[5]; 40° C./25% RH, 3 months
  Total degradation products % w/w: 0.33% w/w
[5]; T0
  Total degradation products % w/w: 0.15% w/w
[6]; formula Bilastine 2 mg/mL, 25° C. 40% RH 9 months
  Total degradation products % w/w: 0.05% w/w
[6]; formula Bilastine 2 mg/mL, 25° C. 40% RH 12 months
  Total degradation products % w/w: 0.05% w/w
[6]; formula Bilastine 2 mg/mL, 40° C. 25% RH 3 months
  Total degradation products % w/w: 0.15% w/w
[6]; formula Bilastine 2 mg/mL, 40° C. 25% RH 6 months
  Total degradation products % w/w: 0.20% w/w
[6]; formula Bilastine 2 mg/mL, T0
  Total degradation products % w/w: 0.05% w/w
[6]; formula Bilastine 4 mg/mL, 25° C. 40% RH 9 months
  Total degradation products % w/w: 0.05% w/w
[6]; formula Bilastine 4 mg/mL, 25° C. 40% RH 12 months
  Total degradation products % w/w: 0.05% w/w
[6]; formula Bilastine 4 mg/mL, 40° C. 25% RH 3 months
  Total degradation products % w/w: 0.14% w/w
[6]; formula Bilastine 4 mg/mL, 40° C. 25% RH 6 months
  Total degradation products % w/w: 0.18% w/w
[6]; formula Bilastine 4 mg/mL, T0
  Total degradation products % w/w: 0.05% w/w
[6]; formula Bilastine 8 mg/mL, 25° C. 40% RH 9 months
  Total degradation products % w/w: 0.05% w/w
[6]; formula Bilastine 8 mg/mL, 25° C. 40% RH 12 months
  Total degradation products % w/w: 0.05% w/w
[6]; formula Bilastine 8 mg/mL, 40° C. 25% RH 3 months
  Total degradation products % w/w: 0.14% w/w
[6]; formula Bilastine 8 mg/mL, 40° C. 25% RH 6 months
  Total degradation products % w/w: 0.17% w/w
[6]; formula Bilastine 8 mg/mL, T0
  Total degradation products % w/w: 0.05% w/w
[7]; HPBCD 25 mg/mL
  Dissolved mometasone (%): 0.7%
  Mometasone impurities (%): 0.2%
[7]; HPBCD 50 mg/mL
  Dissolved mometasone (%): 3.0%
  Mometasone impurities (%): 0.7%
[7]; HPBCD 65 mg/mL
  Dissolved mometasone (%): 5.2%
  Mometasone impurities (%): 1.0%
[7]; HPBCD 85 mg/mL
  Dissolved mometasone (%): 7.2%
  Mometasone impurities (%): 1.3%
[7]; HPBCD 95 mg/mL
  Dissolved mometasone (%): 10.5%
  Mometasone impurities (%): 1.9%

— patent publication US11642309B2, “Aqueous compositions comprising bilastine and mometasone” (FAES FARMA, S.A., priority 2017, dated 2023)
